Data taken from ChEMBL document CHEMBL1154921, “Phenylpropanoyl esters from Horseweed (Conyza canadensis) and their inhibitory effects on catecholamine secretion” (J Nat Prod, 2010).

Experiments:
[1] = Inhibition of acetylcholine-induced catecholamine secretion in bovine chromaffin cells after 10 mins by HPLC coupled electrochemical detector; format: functional, cell-based; conditions: Bos taurus
[2] = Inhibition of acetylcholine-induced calcium flux in calcium 4 reagent loaded bovine chromaffin cells at 1 to 100 uM; format: functional; conditions: Bos taurus

IC50 [1]: 94.7 µM
IC50 [2]: 59.8 µM
Compound: COC(=O)[C@]12C[C@@H](OC(=O)/C=C/c3ccc(O)c(OC)c3)[C@@H](O)[C@H](O1)[C@@H](COC(=O)/C=C/c1ccc(O)c(O)c1)O2 (relative stereo)
